{"source": "patent US12290513B2", "about": "“Therapeutic methods and compositions for treating movement disorders” (Vima Therapeutics, Inc., priority 2023, dated 2025)", "key": {"[1]": {"biological_target": "human muscarinic receptor M1 (Homo sapiens, UniProt P11229)", "sequence (P11229 whole entry)": "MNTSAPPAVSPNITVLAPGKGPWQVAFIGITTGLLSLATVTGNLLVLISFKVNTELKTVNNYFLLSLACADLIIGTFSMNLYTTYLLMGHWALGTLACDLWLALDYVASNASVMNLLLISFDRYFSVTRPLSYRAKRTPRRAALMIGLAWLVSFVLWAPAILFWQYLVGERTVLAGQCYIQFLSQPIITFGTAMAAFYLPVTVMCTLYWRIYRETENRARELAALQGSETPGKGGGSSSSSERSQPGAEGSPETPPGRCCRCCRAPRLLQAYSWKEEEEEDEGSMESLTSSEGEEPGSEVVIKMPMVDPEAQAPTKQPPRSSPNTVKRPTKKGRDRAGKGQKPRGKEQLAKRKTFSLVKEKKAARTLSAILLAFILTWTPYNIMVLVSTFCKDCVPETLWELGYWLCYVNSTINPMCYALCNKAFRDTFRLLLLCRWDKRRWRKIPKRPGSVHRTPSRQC", "assay": "cell-based", "description": "(§1) All cells used in the following experiments were clonal populations of Chinese Hamster Ovary (CHO) cells stably expressing the corresponding human muscarinic receptor, except for the M4 cell line, which was a population of CHO cells transiently transfected with the human M4 receptor. […] The procedure was as follows: • 1. Cells were thawed and cultured in cell culture medium (DMEM/F12 containing 10% FBS, 1× penicillin-streptomycin and 600 μg/ml hygromycin B) at 37° C. in 5% (v/v) CO2. • 2. One day before the assays, cells were detached using TrypLE™ and counted using a cell-counter. […] 12,000 cells/well were seeded in 30 μl/well culture medium in a 384-well cell plate and incubated overnight at 37C, 5% (v/v) CO2. • 4. On the assay day, 2× dye solution was prepared following the manual of the FLIPR® Calcium 6 Assay Kit: • i. The dye was diluted with assay buffer (20 mM HEPES in 1× HBSS, PH 7.4); • ii. Probenecid was added to a final concentration of 5 mM; • iii. […] were vortexed vigorously for 1-2 minutes. • 5. Medium was removed from the cell plate by flicking the cell plate on paper towels. • 6. 10 μl of assay buffer and 10 μl of 2× dye solution was added to each well of the cell plate. • 7. The cell plate was shaken on a plate shaker at 600 rpm for 2 minutes and incubated at 37° C. for 2 hours followed by an additional 15-minute incubation at 25° C. • 8. The test compounds were next prepared in assay buffer: • a. All compounds were diluted to the required concentration with DMSO and added to a 384-well compound plate; • b. All compounds were serially diluted; • 1. Starting with 10 mM concentration of each test compound, all samples were serially diluted in 3-fold dilutions. • 2. 90 nl/well of each compound was transferred from the source plate to a 384-well compound plate using an Echo liquid handler. • 3. 30 μl/well assay buffer was added to the compound plate; • c. The plates were mixed on a plate shaker for 2 mins; • 9. The cell plate, compound plate and pipette tips were placed in the FLIPR screening system and 10 μl of each compound was added to a well of the cell plate. • 10. Plates were read for 160 sec with 1 sec intervals to obtain the data in agonist mode, then kept at 25° C. in the dark for 30 min. • 11."}, "[2]": {"biological_target": "human muscarinic receptor M3 (Homo sapiens, UniProt P20309)", "sequence (P20309 whole entry)": "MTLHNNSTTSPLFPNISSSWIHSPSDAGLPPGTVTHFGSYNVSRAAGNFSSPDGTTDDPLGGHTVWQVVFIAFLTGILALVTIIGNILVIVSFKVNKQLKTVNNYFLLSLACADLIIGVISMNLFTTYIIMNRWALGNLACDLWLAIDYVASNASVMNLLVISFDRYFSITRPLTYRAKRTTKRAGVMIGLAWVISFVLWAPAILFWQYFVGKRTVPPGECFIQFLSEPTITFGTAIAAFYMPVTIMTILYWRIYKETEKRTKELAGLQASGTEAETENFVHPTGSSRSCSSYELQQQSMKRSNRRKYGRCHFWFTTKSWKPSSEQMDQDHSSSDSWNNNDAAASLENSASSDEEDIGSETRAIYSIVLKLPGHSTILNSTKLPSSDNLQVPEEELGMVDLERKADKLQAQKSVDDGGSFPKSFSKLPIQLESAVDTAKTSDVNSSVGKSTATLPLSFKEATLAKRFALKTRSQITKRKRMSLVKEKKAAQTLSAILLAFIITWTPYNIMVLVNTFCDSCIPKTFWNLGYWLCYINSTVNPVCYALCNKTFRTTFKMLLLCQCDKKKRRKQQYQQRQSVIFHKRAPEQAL", "assay": "cell-based", "description": "as §1"}, "[3]": {"biological_target": "T1, human muscarinic receptor M2 (Homo sapiens, UniProt P08172)", "T1 construct": "expressed in transfected cells", "T1 sequence (P08172 whole entry)": "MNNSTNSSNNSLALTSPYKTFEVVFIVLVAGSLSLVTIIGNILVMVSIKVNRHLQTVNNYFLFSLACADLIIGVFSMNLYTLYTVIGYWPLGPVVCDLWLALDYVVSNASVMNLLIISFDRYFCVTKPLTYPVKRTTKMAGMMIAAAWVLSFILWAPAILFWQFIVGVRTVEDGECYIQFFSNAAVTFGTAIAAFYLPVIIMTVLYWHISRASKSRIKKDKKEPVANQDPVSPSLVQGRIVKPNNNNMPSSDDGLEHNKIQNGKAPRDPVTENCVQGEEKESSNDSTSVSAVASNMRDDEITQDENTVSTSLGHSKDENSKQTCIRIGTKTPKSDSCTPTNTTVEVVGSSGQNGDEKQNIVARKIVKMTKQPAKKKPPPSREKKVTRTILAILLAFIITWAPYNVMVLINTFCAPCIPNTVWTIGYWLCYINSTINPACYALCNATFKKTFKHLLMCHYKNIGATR", "assay": "Calcium flux assay (FLIPR), CHO cells expressing human M2", "assay_type": "cell-based", "conditions": "agonist mode", "description": "(§2) All cells used in the following experiments were clonal populations of Chinese Hamster Ovary (CHO) cells stably expressing the corresponding human muscarinic receptor, except for the M4 cell line, which was a population of CHO cells transiently transfected with the human M4 receptor. Muscarinic agonism and antagonism of each receptor was measured by a quantitative calcium flux assay that is used for multiple classes of G-protein-coupled receptors, or GPCRs, as described elsewhere (e.g., Arkin et al., […], PMID: 22553878). Acetylcholine and atropine were used as positive controls for receptor agonism and antagonism, respectively. The procedure was as follows: • 1. Cells were thawed and cultured in cell culture medium (DMEM/F12 containing 10% FBS, 1× penicillin-streptomycin and 600 μg/ml hygromycin B) at 37° C. in 5% (v/v) CO2. • 2. One day before the assays, cells were detached using TrypLE™ and counted using a cell-counter. Only cells with >85% viability are used for the assay. • 3. […] Plates were read for 160 sec with 1 sec intervals to obtain the data in agonist mode, then kept at 25° C. in the dark for 30 min. • 11. […] Plates were read for 160 sec with 1 sec intervals, thereby measuring the ability for test compounds to antagonize the activation of muscarinic receptors by Ach."}, "human M4 receptor": {"biological_target": "T2, human M4 receptor (Homo sapiens, UniProt P08173)", "T2 construct": "expressed in transfected cells; host or cells: CHO (transient transfection)", "T2 sequence (P08173 whole entry)": "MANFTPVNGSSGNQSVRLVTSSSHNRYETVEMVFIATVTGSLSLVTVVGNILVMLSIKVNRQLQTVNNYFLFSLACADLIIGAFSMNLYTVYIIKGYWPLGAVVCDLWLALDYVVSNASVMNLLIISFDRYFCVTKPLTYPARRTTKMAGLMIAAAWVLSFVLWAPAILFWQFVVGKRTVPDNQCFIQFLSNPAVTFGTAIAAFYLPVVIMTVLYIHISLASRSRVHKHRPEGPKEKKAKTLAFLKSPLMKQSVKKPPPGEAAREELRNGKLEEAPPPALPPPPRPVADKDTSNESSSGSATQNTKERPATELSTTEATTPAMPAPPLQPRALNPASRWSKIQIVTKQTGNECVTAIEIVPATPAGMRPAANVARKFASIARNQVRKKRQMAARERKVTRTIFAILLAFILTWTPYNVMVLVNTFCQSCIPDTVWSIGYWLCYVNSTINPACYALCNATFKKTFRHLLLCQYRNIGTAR", "assay": "Calcium flux assay (FLIPR), CHO cells transiently transfected with human M4", "assay_type": "cell-based", "conditions": "agonist mode", "description": "All cells used in the following experiments were clonal populations of Chinese Hamster Ovary (CHO) cells stably expressing the corresponding human muscarinic receptor, except for the M4 cell line, which was a population of CHO cells transiently transfected with the human M4 receptor. […] The procedure was as follows: • 1. Cells were thawed and cultured in cell culture medium (DMEM/F12 containing 10% FBS, 1× penicillin-streptomycin and 600 μg/ml hygromycin B) at 37° C. in 5% (v/v) CO2. • 2. One day before the assays, cells were detached using TrypLE™ and counted using a cell-counter. […] 12,000 cells/well were seeded in 30 μl/well culture medium in a 384-well cell plate and incubated overnight at 37C, 5% (v/v) CO2. • 4. On the assay day, 2× dye solution was prepared following the manual of the FLIPR® Calcium 6 Assay Kit: • i. The dye was diluted with assay buffer (20 mM HEPES in 1× HBSS, PH 7.4); • ii. Probenecid was added to a final concentration of 5 mM; • iii. Cells were vortexed vigorously for 1-2 minutes. • 5. Medium was removed from the cell plate by flicking the cell plate on paper towels. • 6. 10 μl of assay buffer and 10 μl of 2× dye solution was added to each well of the cell plate. • 7. […] Plates were read for 160 sec with 1 sec intervals to obtain the data in agonist mode, then kept at 25° C. in the dark for 30 min. • 11."}, "[4]": {"biological_target": "T3, human muscarinic receptor M5 (Homo sapiens, UniProt P08912)", "T3 construct": "expressed in transfected cells", "T3 sequence (P08912 whole entry)": "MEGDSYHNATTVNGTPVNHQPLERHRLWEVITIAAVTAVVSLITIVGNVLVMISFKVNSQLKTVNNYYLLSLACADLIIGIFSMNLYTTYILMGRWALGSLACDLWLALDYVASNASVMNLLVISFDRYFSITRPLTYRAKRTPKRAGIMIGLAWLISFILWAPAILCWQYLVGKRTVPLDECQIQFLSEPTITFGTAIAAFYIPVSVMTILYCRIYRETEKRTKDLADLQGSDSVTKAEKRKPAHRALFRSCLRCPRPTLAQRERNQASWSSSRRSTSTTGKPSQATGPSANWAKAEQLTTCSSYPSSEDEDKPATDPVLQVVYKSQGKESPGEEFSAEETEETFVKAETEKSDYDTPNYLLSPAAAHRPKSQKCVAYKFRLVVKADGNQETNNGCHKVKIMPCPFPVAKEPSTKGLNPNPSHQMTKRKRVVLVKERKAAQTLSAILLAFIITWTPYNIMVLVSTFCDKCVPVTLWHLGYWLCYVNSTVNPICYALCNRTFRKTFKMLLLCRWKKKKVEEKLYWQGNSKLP", "assay": "Calcium flux assay (FLIPR), CHO cells expressing human M5", "assay_type": "cell-based", "conditions": "agonist mode", "description": "as §2"}, "[5]": {"assay": "In vivo PK of (S)-BTC in rats: plasma, brain, CSF", "conditions": "male, Sprague Dawley, rat, 10 mg/kg single oral dose; for Kp: po, 10 mg/kg", "description": "6-8-week-old male Sprague Dawley rats were fasted overnight prior to treatment. […] Treated animals were exsanguinated prior to brain collection, and brain samples were frozen at −80° C. […] Concentrations of compounds in the plasma, brain, CSF samples were analyzed using a standard LC-MS/MS method to detect parent test compound from each of the processed tissues. The following pharmacokinetic parameters were calculated and analyzed using WinNonlin (Phoenix™, version 8.3): T1/2, Cmax, Tmax, MRT, AUCinf, AUClast, F %, ratio of brain/plasma, ratio of CSF/plasma, and ratio of CSF/brain."}}, "note": "Read-outs that look alike come from different tables or passages of the source.", "data": [{"smiles": "C[C@@H](C[N+](C)(C)C)OC(N)=O.[Cl-]", "note": "[(S)-BTC, (S)-bethanechol]", "values": [{"measurement": "EC50", "setting": "[1]", "value": 195, "unit": "nM"}, {"measurement": "EC50", "setting": "[2]", "value": 20.8, "unit": "nM"}, {"measurement": "EC50", "setting": "[3]", "value": 405, "unit": "nM"}, {"measurement": "EC50", "setting": "human M4 receptor", "value": "> 10000", "unit": "nM"}, {"measurement": "EC50", "setting": "[4]", "value": 124, "unit": "nM"}, {"measurement": "Kp", "setting": "[5]; CSF and plasma, read-out: AUClast Ratio (CSF/Plasma)", "value": 0.00615}, {"measurement": "Kp", "setting": "[5]; CSF and plasma, read-out: Cmax Ratio (CSF/Plasma)", "value": 0.00553}, {"measurement": "Kp", "setting": "[5]; brain and plasma, read-out: AUClast Ratio (Brain/Plasma)", "value": 0.0499}, {"measurement": "Kp", "setting": "[5]; brain and plasma, read-out: Cmax Ratio (Brain/Plasma)", "value": 0.0242}, {"measurement": "AUC(0-t)", "setting": "[5]; CSF, mean", "value": 6.31, "unit": "ng·h/mL"}, {"measurement": "Cmax", "setting": "[5]; CSF, mean", "value": 1.74, "unit": "ng/mL"}, {"measurement": "Tmax", "setting": "[5]; CSF, mean", "value": 0.5, "unit": "h"}, {"measurement": "Cmax", "setting": "[5]; brain, mean", "value": 7.6, "unit": "ng/g"}, {"measurement": "Tmax", "setting": "[5]; brain, mean", "value": 8, "unit": "h"}, {"measurement": "AUC(0-inf)", "setting": "[5]; plasma, mean", "value": 1080, "unit": "ng·h/mL"}, {"measurement": "AUC(0-t)", "setting": "[5]; plasma, mean", "value": 1030, "unit": "ng·h/mL"}, {"measurement": "Cmax", "setting": "[5]; plasma, mean", "value": 314, "unit": "ng/mL"}, {"measurement": "Tmax", "setting": "[5]; plasma, mean", "value": 1, "unit": "h"}, {"measurement": "half-life", "setting": "[5]; plasma, mean", "value": 1.81, "unit": "h"}, {"measurement": "MRT inf", "setting": "[5]; plasma, mean, read-out: MRTInf obs", "value": 2.91, "unit": "h"}]}]}
